According to article PMC6773697, “Antileukemic activity of novel adenosine derivatives” (Scientific Reports, 2019):

Tests used:
Format in all cases: cell-based, human
[1] = test system: caspase-3/7 in HL-60 cells; test: Caspase 3/7 assay, HL-60; settings: HL-60, 48 h
Description: (§1) The activities of caspases-3 and −7 were estimated with CellEvent™ Caspse-3/7 Green Detection Reagent (Thermo Fisher Scientific) according to the manufacturer’s protocol. The cells were seeded on 96-well plates (15 × 10^3/ well) and 24 h later, incubated with the appropriate drugs for 24 h or 48 h. The cells were fixed by adding a final concentration of 4% paraformaldehyde solution (10 min, room temperature). Cells were labeled with CellEvent™Caspase-3/7 Green Detection Reagent (5 µM), followed by Hoechst 33342 (5 µg/ml) for 15 minutes in complete medium3. Caspase-3/7 Green Detection Reagent was diluted into PBS with 5% FBS to avoid fluorescence background. After activation of caspase-3/7 in apoptotic cells, the DEVD peptide was cleaved, enabling the dye to bind DNA, which produced a bright, fluorogenic response with absorption/emission maxima of 502/530 nm according with manufacture protocol. Fluorescence intensity was measured using a Fluoroskan Ascent FL plate reader (Labsystem, Sweden). Cysteine protease activity was expressed as a ratio of fluorescence of the drug-treated samples to the corresponding untreated controls (taken as 100%). In some experimental variants, cells were preincubated for 1 h with VE-821 (10 µM) or Z-FA-FMK (caspas-3 inhibitor, 0.5 µM) to confirm that the fluorescence observed in both control and drug-treated cells was due to the presence of caspase-3/7 in samples. The caspase 3/7 signal was normalized to the Hoechst 33342 staining intensity to account for differences in cell seeding density (description in: Intracellular calcium assay section).

[2] = test system: caspase-3/7 in THP-1 cells; test: Caspase 3/7 assay, THP-1; settings: THP-1, 48 h
Description: as §1, with “After activation of caspase-3/7 in apoptotic cells, the DEVD peptide was cleaved, enabling the dye to bind DNA, which produced a bright, fluorogenic response with absorption/emission maxima of 502/530 nm according with manufacture protocol.” left out, “The caspase 3/7 signal was normalized to the Hoechst 33342 staining intensity to account for differences in cell seeding density (description in: Intracellular calcium assay section).” left out

MOLT-4 cells [3] = test: Comet assay with proteinase K post-treatment (DNA-protein cross-links), MOLT-4; settings: MOLT-4, 24 h
Description: Single cell gel electrophoresis (comet assay) was used to detect alkali labile sites, single and double DNA strand breaks, and cross-links induced by genotoxic agents. After electrophoresis and gel staining with 4,6-diamidino-2-phenylindole (DAPI), the released DNA was visible under a fluorescence microscope as a characteristic comet tail. The cells were plated on 24-well plates (20,000 cells/mL) and treated with CLA, CLA-FMOR, CLA-FPIP, or CLA-FPIR at the indicated concentrations for 2, 24, and 48 h at 37 °C. Some cells were preincubated with an ATR kinase inhibitor (VE-821) for 1 h at 37 °C before adding the tested compounds. Next, cells were collected into Eppendorf tubes and rinsed with PBS. Then, cells were suspended in 0.75% low melting point (LMP) agarose dissolved in PBS (pH 7.4) and placed on microscope slides precoated with 0.5% normal melting point (NMP) agarose. […] The slides were stored in a wet chamber at 4 °C and analyzed under a fluorescence microscope. Fifty randomly selected cells from each slide were measured using image analysis (Nikon, Japan) attached to a COHU 4910 video camera, which was equipped with a UV-1 filter block consisting of an excitation filter (359 nm) and a barrier filter (461 nm) connected to the image analysis system Lucia-Comet v. […] In the samples preincubated with VE-821, the level of DNA damage associated with the ATR kinase was determined. […]

MOLT-4 cells [4] = test: Cell cycle analysis by flow cytometry, MOLT-4; settings: 80 nM, +VE-821 = 1 h preincubation
Description: Cellular DNA content was quantified by flow cytometry. Cells were treated with drugs for 2, 24, and 48 h. For experiments with inhibitors, cells were subjected to 1 h preincubation with VE-821. CLA, CLA-FMOR, CLA-FPIP, or CLA-FPIR was added, and incubation continued for the indicated times under the same conditions. After incubation was completed, cells were collected, washed twice with PBS, and fixed in 70% ethanol. After ethanol fixation (at least 24 h at 4 °C), cells were washed in PBS and centrifuged at 7,000 × g for 10 min at 4 °C. Pelleted cells were stained by adding 300 µL PBS containing PI and RNase at final concentrations of 75 µM and 20 µg/mL, respectively. This was followed by 1 h incubation in total darkness at 37 °C. Stained cells were analyzed using a flow cytometer (Becton Dickinson, San Jose, CA, USA). The cell populations at specific phases of the cell cycle were quantified from a standard count of 10,000 cells using FlowJo cytology software (Ashland, OR, USA)[39],[40].

HL-60 cells = test: Alkaline comet assay, HL-60; settings: HL-60, 48 h
Description: Single cell gel electrophoresis (comet assay) was used to detect alkali labile sites, single and double DNA strand breaks, and cross-links induced by genotoxic agents. After electrophoresis and gel staining with 4,6-diamidino-2-phenylindole (DAPI), the released DNA was visible under a fluorescence microscope as a characteristic comet tail. The cells were plated on 24-well plates (20,000 cells/mL) and treated with CLA, CLA-FMOR, CLA-FPIP, or CLA-FPIR at the indicated concentrations for 2, 24, and 48 h at 37 °C. Some cells were preincubated with an ATR kinase inhibitor (VE-821) for 1 h at 37 °C before adding the tested compounds. Next, cells were collected into Eppendorf tubes and rinsed with PBS. Then, cells were suspended in 0.75% low melting point (LMP) agarose dissolved in PBS (pH 7.4) and placed on microscope slides precoated with 0.5% normal melting point (NMP) agarose. […] The slides were stored in a wet chamber at 4 °C and analyzed under a fluorescence microscope. Fifty randomly selected cells from each slide were measured using image analysis (Nikon, Japan) attached to a COHU 4910 video camera, which was equipped with a UV-1 filter block consisting of an excitation filter (359 nm) and a barrier filter (461 nm) connected to the image analysis system Lucia-Comet v. […] In the samples preincubated with VE-821, the level of DNA damage associated with the ATR kinase was determined.

γH2AX in HL-60 cells = test: H2AX (phospho S139) In-Cell ELISA, HL-60; settings: HL-60, 48 h, versus control cells
Description: The level H2AX protein phosphorylated Ser139 was measured in tested leukemia cells by using of In-Cell ELISA, ICE assay kit. The cells were seeded on 96-well plates (100 × 10^3/well) and 48 h later, incubated with the appropriate compounds. In some experimental variants, cells were preincubated for 1 h with VE-821 (10 µM). The cells were fixed by adding a final concentration of 4% paraformaldehyde solution (10 min, room temperature). After 2 h of Block Solution incubation, cells were treated with a highly specific antibody. A rabbit monoclonal antibody specific to H2AX (phospho S139) was used (at 1:100, 2 h incubation). Next Secondary Antibody Solution (at 1:1000) were added to the cells. The measurements were obtained on a fluorescence plate reader at an excitation wavelength of 680 nm and emission at 694 nm. The cells were PBS washed and 100 µL of Janus Green Stain was added to each well of the plate (5 min., room temperature). The data were collected at excitation wavelength of 750 nm and emission at 800 nm channel (Fluoroskan Cary Eclipse). Antibody signal intensity was normalized to the total amount using Janus Green cell-stain.

Row | SMILES | caspase-3/7 level [1] | caspase-3/7 level [2] | percentage of DNA in the comet tail after proteinase K (MOLT-4 cells [3]) | MOLT-4 (48h) S, percentage share of cell cycle phase (MOLT-4 cells [4]) [%] | DNA damage relative to that induced by the unmodified drug (HL-60 cells) | DNA fragmentation, percentage of the DNA in the comet tail (HL-60 cells; 130 nM) [%] | increase in γH2AX level (γH2AX in HL-60 cells)
1 | OC[C@H]1O[C@@H](n2cnc3c(N=CN4CCCC4)nc(Cl)nc32)C[C@@H]1O [CLA-FPIR, [6-deamino-6-(N′, N′-l′, 4′-tetramethyleneformamidino)] cladribine] | highest changes | highest changes |  |  |  |  | 
2 | OC[C@H]1O[C@@H](n2cnc3c(N=CN4CCOCC4)nc(Cl)nc32)C[C@@H]1O [CLA-FMOR, [6-deamino-6-(N′, N′-3′-oxa-1′, 5′-pentamethyleneformamidine)] cladribine] |  |  | increase in the percentage of DNA in the comet tail | 46 | two-fold higher | 24 | ~ 2.4 fold
